# According to patent publication US20020028836A1, “Potassium channel openers” (priority 2000, published 2002):
# Where two headings read alike, the source gives them in different places.
# Tested on: tissue strips obtained from Landrace pig bladders
# Experiment: Functional potassium channel opening activity in isolated bladder strips (field-stimulated twitch)
# Settings: for Index: ED50 for P1075 divided by ED50 for the test agonist in a given tissue, averaged; for EC50: amount of agent necessary to cause 50% of the agent's maximal response, read-out: ED50 (the source's name); for Emax / Efficacy (% P1075): maximal efficacy relative to P1075, field stimulation 0.05 Hz, 0.5 ms, 20 volts
# Description: Compounds were evaluated for functional potassium channel opening activity using tissue strips obtained from Landrace pig bladders.
# Landrace pig bladders were obtained from female Landrace pigs of 9-30 kg. Landrace pigs were euthanized with an intraperitoneal injection of pentobarbital solution, Somlethal®, J. A. Webster Inc., Sterling, Mass. The entire bladder was removed and immediately placed into Krebs Ringer bicarbonate solution (composition, mM: NaCl, 120; NaHCO3, 20; dextrose, 11; KCl, 4.7; CaCl2, 2.5; MgSO4, 1.5; KH2PO4, 1.2; K2EDTA, 0.01, equilibrated with 5% CO2/95% O2pH 7.4 at 37° C.). Propranolol (0.004 mM) was included in all of the assays to block β-adrenoceptors. The trigonal and dome portions were discarded. Strips 3-5 mm wide and 20 mm long were prepared from the remaining tissue cut in a circular fashion. The mucosal layer was removed. One end was fixed to a stationary glass rod and the other to a Grass FT03 transducer at a basal preload of 1.0 gram. Two parallel platinum electrodes were included in the stationary glass rod to provide field stimulation of 0.05 Hz, 0.5 milli-seconds at 20 volts. This low frequency stimulation produced a stable twitch response of 100-500 centigrams. Tissues were allowed to equilibrate for at least 60 minutes and primed with 80 mM KCl. A control concentration response curve (cumulative) was generated for each tissue using the potassium channel opener P1075 as the control agonist. […] After a 60 minute rinsing period, a concentration response curve (cumulative) was generated for the test agonist in the same fashion as that used for the control agonist P1075. The maximal efficacy of each compound (expressed as % relative to P1075) is reported. The amount of agent necessary to cause 50% of the agent's maximal response (ED50) was calculated using “ALLFIT” (DeLean et al., Am. J. Physiol., 235, E97 (1980)), hereby incorporated by reference. Agonist potencies were also expressed as an index relative to P1075. The index was calculated by dividing the ED50 for P1075 by the ED50 for the test agonist in a given tissue. Each tissue was used for only one test agonist, and the indices obtained from each tissue were averaged to provide an average index of potency.
SMILES,Index,EC50 (Sus scrofa),Emax (Sus scrofa),EC50,Efficacy (% P1075),"stimulated twitch / stimulated contractions of the bladder (P1075: 10^−9 to 10^−5 M, cumulative, ½ log increments)"
"CC(C)(C)C(NC(=O)c1cc(F)cc(F)c1)NC(=NC#N)Nc1cccnc1 (stereo not shown) [Example 110, N-(1-{[(cyanoimino)(3-pyridinylamino)methyl]amino}-2,2-dimethylpropyl)-3,5-difluorobenzamide]",0.017,6.2 µM,61%,–,–,–
"CC(Cl)(Cl)C(NC(=O)c1cccs1)NC(=NC#N)Nc1ccc(Cl)nc1 (stereo not shown) [Example 192, N-(2,2-dichloro-1-{[[(6-chloro-3-pyridinyl)amino](cyanoimino)methyl]amino}propyl)-2-thiophenecarboxamide]",0.019,3.1 µM,99%,–,–,–
"CC(Cl)(Cl)C(NC(=O)c1ccc(Cl)cc1)NC(=NC#N)Nc1cccnc1 (single isomer, unassigned; (-)) [Example 117, (−) 4-chloro-N-(2,2-dichloro-1-{[(cyanoimino)(3-pyridinylamino)methyl]amino}propyl)benzamide]",0.030,–,–,5.8 µM,79 % P1075,–
"CC(Cl)(Cl)C(NC(=O)c1cccc(Cl)c1)NC(=NC#N)Nc1ccccc1F (stereo not shown) [Example 172, 3-chloro-N-(2,2-dichloro-1-{[(cyanoimino)(2-fluoroanilino)methyl]amino}propyl)benzamide]",0.507,0.49 µM,53%,–,–,–
"CC(C)(C)CC(NC(=O)c1ccc(Br)cc1)NC(=NS(=O)(=O)C(F)(F)F)Nc1cccnc1 (stereo not shown) [Example 188, 4-bromo-N-{3,3-dimethyl-1-[((3-pyridinylamino){[(trifluoromethyl)sulfonyl]imino}methyl)amino]butyl}benzamide]",0.020,10 µM,87%,–,–,–
"CC(Cl)(Cl)C(NC(=O)c1ccc(Cl)cc1)NC(=NC#N)Nc1cccnc1 (single isomer, unassigned; (+)) [Example 118, (+) 4-chloro-N-(2,2-dichloro-1-{[(cyanoimino)(3-pyridinylamino)methyl]amino}propyl)benzamide]",0.006,–,–,22 µM,69 % P1075,–
"CC(C)(C)CC(NC(=O)c1ccc(Cl)cc1)NC(=NS(=O)(=O)C(F)(F)F)Nc1cccnc1 (single isomer, unassigned; (+)) [Example 186, (+) 4-chloro-N-{3,3-dimethyl-1-[((3-pyridinylamino){[(trifluoromethyl)sulfonyl]imino}methyl)amino]butyl}benzamide]",2.1,–,–,1.2 µM,66 % P1075,–
"CC(Cl)(Cl)C(NC(=O)c1ccc(Cl)cc1)NC(=NC#N)Nc1ccc(Cl)nc1 (single isomer, unassigned; (-)) [Example 161, (−) 4-chloro-N-(2,2-dichloro-1-{[[(6-chloro-3-pyridinyl)amino](cyanoimino)methyl]amino}propyl)benzamide]",0.108,–,–,4 µM,93 % P1075,–
"CC(C)(C)CC(NC(=O)c1ccc(Cl)cc1)NC(=N[N+](=O)[O-])Nc1cccnc1 (single isomer, unassigned; (+)) [Example 125, (+) 4-chloro-N-(1-{[(nitroimino)(3-pyridinylamino)methyl]amino}-3,3-dimethylbutyl)benzamide]",0.030,–,–,9.2 µM,92 % P1075,–
"CC(Cl)(Cl)C(NC(=O)c1cccc(Cl)c1)NC(=NC#N)Nc1cccc(F)c1 (stereo not shown) [Example 169, 3-chloro-N-(2,2-dichloro-1-{[(cyanoimino)(3-fluoroanilino)methyl]amino}propyl)benzamide]",0.231,5 µM,75%,–,–,–
"CC(Cl)(Cl)C(NC(=O)c1ccc(Cl)cc1)NC(=NC#N)Nc1ccc(C(F)(F)F)nc1 (stereo not shown) [Example 158, 4-chloro-N-{2,2-dichloro-1-[((cyanoimino){[6-(trifluoromethyl)-3-pyridinyl]amino}methyl)amino]propyl}benzamide]",0.061,4.8 µM,92%,–,–,–
"CC(Cl)(Cl)C(NC(=O)c1cccc(Cl)c1)NC(=NC#N)Nc1ccc(C(F)(F)F)nc1 (stereo not shown) [Example 159, 3-chloro-N-{2,2-dichloro-1-[((cyanoimino){[6-(trifluoromethyl)-3-pyridinyl]amino}methyl)amino]propyl}benzamide]",0.013,7.9 µM,92%,–,–,–
"CC(Cl)(Cl)C(NC(=O)c1cccc(Cl)c1)NC(=NC#N)Nc1cccnc1 (stereo not shown) [Example 119, 3-chloro-N-(2,2-dichloro-1-{[(cyanoimino)(3-pyridinylamino)methyl]amino}propyl)benzamide]",0.939,3.4 µM,78%,–,–,–
"CC(C)(C)C(NC(=O)c1ccc(Cl)cc1)NC(=NC#N)Nc1cnc2ccccc2c1 (stereo not shown) [Example 83, 4-chloro-N-(1-{[(cyanoimino)(3-guinolinylamino)methyl]amino}-2,2-dimethylpropyl)benzamide]",0.031,–,–,2.8 µM,62 % P1075,–
"CC(Cl)(Cl)C(NC(=O)c1ccc(Cl)cc1)NC(=NC#N)Nc1ccc(F)nc1 (stereo not shown) [Example 180, 4-chloro-N-[2,2-dichloro-1-({(cyanoimino)[(6-fluoro-3-pyridinyl)amino]methyl}amino)propyl]benzamide]",0.040,2.3 µM,98%,–,–,–
"CC(Cl)(Cl)C(NC(=O)c1cc(F)cc(F)c1)NC(=NC#N)Nc1ccc(C(F)(F)F)nc1 (stereo not shown) [Example 155, N-{2,2-dichloro-1-[((cyanoimino){[6-(trifluoromethyl)-3-pyridinyl]amino}methyl)amino]propyl}-3,5-difluorobenzamide]",0.022,2.5 µM,95%,–,–,–
"CCC(C)(C)N=C(NC#N)Nc1cccnc1 [Example P1075, reference compound]",–,–,–,–,–,completely eliminated the stimulated twitch
"CC(Cl)(Cl)C(NC(=O)c1cccc(F)c1)NC(=NC#N)Nc1ccc(Cl)nc1 (stereo not shown) [Example 156, N-(2,2-dichloro-1-{[[(6-chloro-3-pyridinyl)amino](cyanoimino)methyl]amino}propyl)-3-fluorobenzamide]",0.048,4 µM,93%,–,–,–
"CC(C)(C)CC(NC(=O)c1ccc(Cl)cc1)NC(=NS(=O)(=O)C(F)(F)F)Nc1cccnc1 (stereo not shown) [Example 142, 4-chloro-N-{3,3-dimethyl-1-[((3-pyridinylamino){[(trifluoromethyl)sulfonyl]imino}methyl)amino]butyl}benzamide]",0.270,–,–,0.6 µM,44 % P1075,–
"CC(Cl)(Cl)C(NC(=O)c1cc(F)cc(F)c1)NC(=NC#N)Nc1cccnc1 (stereo not shown) [Example 120, N-(2,2-dichloro-1-{[(cyanoimino)(3-pyridinylamino)methyl]amino}propyl)-3,5-difluorobenzamide]",0.017,7.5 µM,84%,–,–,–
"CC(C)(C)CC(NC(=O)c1ccc(Cl)cc1)NC(=NS(=O)(=O)C(F)(F)F)Nc1cccnc1 (single isomer, unassigned; (-)) [Example 187, (−) 4-chloro-N-{3,3-dimethyl-1-[((3-pyridinylamino){[(trifluoromethyl)sulfonyl]imino}methyl)amino]butyl}benzamide]",0.077,–,–,7.8 µM,52 % P1075,–
"COc1ncccc1NC(=NC#N)NC(NC(=O)c1cccc(Cl)c1)C(C)(Cl)Cl (stereo not shown) [Example 174, 3-chloro-N-[2,2-dichloro-1-({(cyanoimino)[(2-methoxy-3-pyridinyl)amino]methyl}amino)propyl]benzamide]",2.2,1.2 µM,34%,–,–,–
"N#CN=C(Nc1cccnc1)NC(NC(=O)c1ccc(Cl)cc1)C(F)(F)C(F)(F)F (stereo not shown) [Example 121, 4-chloro-N-(1-{[(cyanoimino)(3-pyridinylamino)methyl]amino}-2,2,3,3,3-pentafluoropropyl)benzamide]",0.044,4.8 µM,89%,–,–,–
"CC(C)(C)CC(NC(=O)c1ccc(C(F)(F)F)cc1)NC(=NS(=O)(=O)C(F)(F)F)Nc1cccnc1 (stereo not shown) [Example 189, N-{3,3-dimethyl-1-[((3-pyridinylamino){[(trifluoromethyl)sulfonyl]imino}methyl)amino]butyl}-4-(trifluoromethyl)benzamide]",0.078,0.93 µM,66%,–,–,–
